Laboratory results as given in publication PMC8286840, “Identifying SARS-CoV-2 antiviral compounds by screening for small molecule inhibitors of Nsp3 papain-like protease” (Biochemical Journal, 2021).
Where a name gives a salt, the structure may show the parent alone. Read-outs that look alike come from different tables or passages of the source. Where a SMILES comes first, the peptide text is derived from it.

What was measured:
[1] = molecular target: T1, SARS-CoV-2 PLpro (nsp3 1564–1878) (Severe acute respiratory syndrome coronavirus 2, UniProt P0DTD1); test: biochemical; parameters: FRET-quenched peptide (Pro3) cleavage by PLpro, 10 min pre-incubation, slope over 20 min, normalised to no-compound control; conditions: read-out: % of control remaining
[2] = molecular target: T1, SARS-CoV-2 PLpro (nsp3 1564–1878); test: biochemical; parameters: FRET-quenched peptide (Pro3) cleavage by PLpro, 10 min pre-incubation, slope over 20 min, normalised to no-compound control; conditions: read-out: % of control remaining; remark: listed apart in the source

SMILES: CCC(C)(C)C(=O)O[C@H]1C[C@@H](C)C=C2C=C[C@H](C)[C@H](CC[C@@H]3C[C@@H](O)CC(=O)O3)[C@H]21 [Simvastatin]
- remaining activity at 1.25 µM ([1]; Well no.=1620, low concentration screen): 107%
- remaining activity at 3.75 µM ([2]; Well no.=1620, high concentration screen): 107%

SMILES: C=CC[C@@H]1/C=C(\C)C[C@H](C)C[C@H](OC)[C@H]2O[C@@](O)(C(=O)C(=O)N3CCCC[C@H]3C(=O)O[C@H](/C(C)=C/[C@@H]3CC[C@@H](O)[C@H](OC)C3)[C@H](C)[C@@H](O)CC1=O)[C@H](C)C[C@@H]2OC [Tacrolimus (monohydrate)]
- remaining activity at 1.25 µM ([1]; Well no.=6306, low concentration screen): 96.8%
- remaining activity at 1.25 µM ([1]; Well no.=7308, low concentration screen): 104%
- remaining activity at 3.75 µM ([2]; Well no.=6306, high concentration screen): 93.9%
- remaining activity at 3.75 µM ([2]; Well no.=7308, high concentration screen): 107%

SMILES: O=c1ccn([C@@H]2O[C@H](CO)[C@@H](O)[C@H]2O)c(=O)[nH]1 [Uridine]
- remaining activity at 1.25 µM ([1]; Well no.=4716, low concentration screen): 103%
- remaining activity at 3.75 µM ([2]; Well no.=4716, high concentration screen): 104%

SMILES: COC[C@H]1OC(=O)c2coc3c2[C@@]1(C)C1=C(C3=O)C2CCC(=O)[C@@]2(C)C[C@H]1OC(C)=O (stereo partly drawn) [Wortmannin from Penicillium funiculosum]
- remaining activity at 1.25 µM ([1]; Well no.=1386, low concentration screen): 92.9%
- remaining activity at 3.75 µM ([2]; Well no.=1386, high concentration screen): 94.7%

SMILES: CCCc1nn(C)c2c(=O)[nH]c(-c3cc(S(=O)(=O)N4CCN(C)CC4)ccc3OCC)nc12 [Sildenafil]
- remaining activity at 1.25 µM ([1]; Well no.=1836, low concentration screen): 99.2%
- remaining activity at 3.75 µM ([2]; Well no.=1836, high concentration screen): 96.8%

SMILES: CCC(=O)O[C@@H](O[P@](=O)(CCCCc1ccccc1)CC(=O)N1C[C@H](C2CCCCC2)C[C@H]1C(=O)O)C(C)C [Fosinopril Sodium]
- remaining activity at 1.25 µM ([1]; Well no.=8492, low concentration screen): 101%
- remaining activity at 3.75 µM ([2]; Well no.=8492, high concentration screen): 102%

SMILES: Cc1nc(Nc2ncc(C(=O)Nc3c(C)cccc3Cl)s2)cc(N2CCN(CCO)CC2)n1 [Dasatinib]
- remaining activity at 1.25 µM ([1]; Well no.=2933, low concentration screen): 101%
- remaining activity at 3.75 µM ([2]; Well no.=2933, high concentration screen): 97.3%

SMILES: CC(C)=CCCC1=CC(=O)c2c(O)ccc(O)c2C1=O [Deoxyshikonin]
- remaining activity at 1.25 µM ([1]; Well no.=3164, low concentration screen): 86.1%
- remaining activity at 3.75 µM ([2]; Well no.=3164, high concentration screen): 85.7%

SMILES: O=C(NCCCNc1nc(Nc2cccc(NC(=O)N3CCCC3)c2)ncc1I)c1cccs1 [BX795]
- remaining activity at 1.25 µM ([1]; Well no.=2931, low concentration screen): 99%
- remaining activity at 3.75 µM ([2]; Well no.=2931, high concentration screen): 99.2%

SMILES: CSc1ccc(C(=O)/C=C/c2cc(C)c(OC(C)(C)C(=O)O)c(C)c2)cc1 [Elafibranor]
- remaining activity at 1.25 µM ([1]; Well no.=8106, low concentration screen): 96.6%
- remaining activity at 3.75 µM ([2]; Well no.=8106, high concentration screen): 95.3%

SMILES: COc1cc2cc(c1Cl)N(C)C(=O)C[C@H](OC(=O)[C@H](C)N(C)C(=O)CCSC1CC(=O)N(CC3CCC(C(=O)ON4C(=O)CCC4=O)CC3)C1=O)[C@]1(C)O[C@H]1[C@H](C)[C@@H]1C[C@@](O)(NC(=O)O1)[C@H](OC)/C=C/C=C(\C)C2 (stereo partly drawn) [SMCC-DM1]
- remaining activity at 1.25 µM ([1]; Well no.=8216, low concentration screen): 100%
- remaining activity at 3.75 µM ([2]; Well no.=8216, high concentration screen): 96.4%

SMILES: CCOc1nc2cccc(C(=O)O)c2n1Cc1ccc(-c2ccccc2-c2nnn[nH]2)cc1 [Candesartan]
- remaining activity at 1.25 µM ([1]; Well no.=1846, low concentration screen): 96.4%
- remaining activity at 1.25 µM ([1]; Well no.=7380, low concentration screen): 103%
- remaining activity at 3.75 µM ([2]; Well no.=1846, high concentration screen): 96.2%
- remaining activity at 3.75 µM ([2]; Well no.=7380, high concentration screen): 105%

SMILES: CC(C)n1c(/C=C/[C@@H](O)C[C@@H](O)CC(=O)O)c(-c2ccc(F)cc2)c2ccccc21 [Fluvastatin sodium (Lescol)]
- remaining activity at 1.25 µM ([1]; Well no.=4998, low concentration screen): 106%
- remaining activity at 3.75 µM ([2]; Well no.=4998, high concentration screen): 102%

SMILES: Cn1cc(/C=C2\C(=O)Nc3ccc(S(N)(=O)=O)cc32)c2ccccc21 [Syk Inhibitor]
- remaining activity at 1.25 µM ([1]; Well no.=2595, low concentration screen): 96.8%
- remaining activity at 3.75 µM ([2]; Well no.=2595, high concentration screen): 96.7%

SMILES: CCCCCCCC[C@H]1O[C@H]1CCCCCCCC(=O)O [Epoxy-oleic acid]
- remaining activity at 1.25 µM ([1]; Well no.=4569, low concentration screen): 96.6%
- remaining activity at 3.75 µM ([2]; Well no.=4569, high concentration screen): 103%

SMILES: COc1ccccc1Oc1c(NS(=O)(=O)c2ccc(C(C)(C)C)cc2)nc(-c2ncccn2)nc1OCCO [Bosentan Hydrate]
- remaining activity at 1.25 µM ([1]; Well no.=5273, low concentration screen): 97.9%
- remaining activity at 3.75 µM ([2]; Well no.=5273, high concentration screen): 95.6%

SMILES: O=C(O)CNC(=O)C(=O)O [N-Oxalylglycine]
- remaining activity at 1.25 µM ([1]; Well no.=5387, low concentration screen): 97.9%
- remaining activity at 3.75 µM ([2]; Well no.=5387, high concentration screen): 92.4%

SMILES: C[C@@]12CCc3occc3[C@H]1CC[C@@]13C[C@@H](CC[C@H]12)[C@@](O)(CO)C3 [Cafestol]
- remaining activity at 1.25 µM ([1]; Well no.=3523, low concentration screen): 102%
- remaining activity at 3.75 µM ([2]; Well no.=3523, high concentration screen): 96.8%

SMILES: COc1cc(-c2oc3cc(O)cc(O)c3c(=O)c2O)ccc1O [Isorhamnetine]
- remaining activity at 1.25 µM ([1]; Well no.=3150, low concentration screen): 99.4%
- remaining activity at 3.75 µM ([2]; Well no.=3150, high concentration screen): 99.7%

SMILES: CCCCCCCCCCCCCCCC(=O)OC/C=C(C)/C=C/C=C(C)/C=C/C1=C(C)CCCC1(C)C [Retinyl palmitate]
- remaining activity at 1.25 µM ([1]; Well no.=4134, low concentration screen): 96.7%
- remaining activity at 3.75 µM ([2]; Well no.=4134, high concentration screen): 97.6%

SMILES: CCCC(C)(C)c1ccc2c(c1)OC(C)(C)[C@@H]1CC=C(C)C[C@@H]21 [JWH-133]
- remaining activity at 1.25 µM [1]: 102%
- remaining activity at 3.75 µM [2]: 104%

SMILES: COc1ccc(/C=C/c2cc(OC)cc(=O)o2)cc1 [Yangonin]
- remaining activity at 1.25 µM ([1]; Well no.=3765, low concentration screen): 90.2%
- remaining activity at 3.75 µM ([2]; Well no.=3765, high concentration screen): 90.6%

SMILES: Nc1ccc(CCNc2ncnc3c2ncn3[C@@H]2O[C@H](CO)[C@@H](O)[C@H]2O)cc1 [N6-2-(4-Aminophenyl)ethyladenosine]
- remaining activity at 1.25 µM ([1]; Well no.=162, low concentration screen): 94.9%
- remaining activity at 3.75 µM ([2]; Well no.=162, high concentration screen): 98%

SMILES: CC[C@@]1(O)C(=O)OCc2c1cc1n(c2=O)Cc2cc3ccccc3nc2-1 [Camptothecin]
- remaining activity at 1.25 µM ([1]; Well no.=1664, low concentration screen): 98.5%
- remaining activity at 1.25 µM ([1]; Well no.=3127, low concentration screen): 96.8%
- remaining activity at 3.75 µM ([2]; Well no.=1664, high concentration screen): 84.5%
- remaining activity at 3.75 µM ([2]; Well no.=3127, high concentration screen): 91.9%

SMILES: CC(=O)c1ccc(NC2=C(Cl)C(=O)c3ccccc3C2=O)cc1 [NQ301]
- remaining activity at 1.25 µM ([1]; Well no.=5652, low concentration screen): 93.7%
- remaining activity at 3.75 µM ([2]; Well no.=5652, high concentration screen): 82.1%

SMILES: Oc1ccc2c3c1O[C@H]1c4[nH]c5c(c4C[C@@]4(O)[C@@H](C2)N(CC2CC2)CC[C@]314)C[C@@]1(O)[C@H]2Cc3ccc(O)c4c3[C@@]1(CCN2CC1CC1)[C@H]5O4 [nor-Binaltorphimine dihydrochloride]
- remaining activity at 1.25 µM ([1]; Well no.=805, low concentration screen): 100%
- remaining activity at 3.75 µM ([2]; Well no.=805, high concentration screen): 97%

SMILES: O=C(O)Cc1ccc(O)c(O)c1 [3,4-Dihydroxybenzeneacetic acid]
- remaining activity at 1.25 µM ([1]; Well no.=6355, low concentration screen): 104%
- remaining activity at 3.75 µM ([2]; Well no.=6355, high concentration screen): 106%

SMILES: Cc1ccc(Sc2ccccc2N2CCNCC2)c(C)c1 [Vortioxetine (hydrobromide)]
- remaining activity at 1.25 µM ([1]; Well no.=7384, low concentration screen): 98.6%
- remaining activity at 3.75 µM ([2]; Well no.=7384, high concentration screen): 98.7%

SMILES: N[C@@H](CCC(=O)O)C(=O)N[C@@H](Cc1c[nH]c2ccccc12)C(=O)O [Oglufanide] (H-Glu-Trp-OH)
- remaining activity at 1.25 µM ([1]; Well no.=8604, low concentration screen): 107%
- remaining activity at 3.75 µM ([2]; Well no.=8604, high concentration screen): 101%

SMILES: C#CCN[C@@H]1CCc2ccccc21 [Rasagiline mesylate]
- remaining activity at 1.25 µM ([1]; Well no.=4766, low concentration screen): 98.4%
- remaining activity at 3.75 µM ([2]; Well no.=4766, high concentration screen): 97.6%

SMILES: CN1CCN2c3ccccc3Cc3ccccc3C2C1 (stereo not drawn) [Mianserin.HCl]
- remaining activity at 1.25 µM ([1]; Well no.=1540, low concentration screen): 100%
- remaining activity at 3.75 µM ([2]; Well no.=1540, high concentration screen): 101%

SMILES: O=C(NC1CCOCC1)c1ccc(-c2cc(-c3c[nH]nc3-c3ccccn3)ccn2)cc1 [GW788388]
- remaining activity at 1.25 µM ([1]; Well no.=5067, low concentration screen): 102%
- remaining activity at 3.75 µM ([2]; Well no.=5067, high concentration screen): 106%

SMILES: NC[C@H](O)c1ccc(O)c(O)c1 [Norepinephrine]
- remaining activity at 1.25 µM ([1]; Well no.=7015, low concentration screen): 106%
- remaining activity at 3.75 µM ([2]; Well no.=7015, high concentration screen): 103%
